Legend:
corn rust = test: protectant activity in vivo against corn rust
[1] = test system: Green peach aphids (Myzus Persicae Sulzer); test: bioactivity test against green peach aphid, airbrush foliar spray; assay type: in vivo; details: for pest or weed control at 2.5 µg/mL: 2.5 mg/L; for pest or weed control at 5 µg/mL: 5 mg/L; for pest or weed control at 10 µg/mL: 10 mg/L; for pest or weed control at 100 µg/mL: 100 mg/L; for pest or weed control at 600 µg/mL: 600 mg/L
Procedure, shortened: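 Death rate was scored at 48 hrs, held at 25±1 C and 60±5% RH, following airbrush foliar spray (0.5 mL, 10 psi) onto cabbage leaf discs bearing about 15-30 aphids. Test solutions: compound dissolved in 1:1 acetone:methanol, brought to concentration with 0.1% tween 80 water.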

Diamond back moth = test: insecticidal activity against diamond back moth, airbrush spray; assay type: in vivo
Procedure, shortened: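 Airbrush leaf-disc spray test: both faces of 2 cm cabbage discs received 0.5 ml of test solution at 0.7 kg/cm^2. Solutions were made in acetone:methanol (1:1) and brought to concentration with 0.1% Tween 80 in water. Ten second-instar larvae per disc, triplicates, were held at 25° C and 60˜70% R.H., with mortality recorded at 72 hrs.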

armyworm = test: bioactivity test against armyworm, airbrush spray; assay type: in vivo; details: mortality after 72 h; for pest or weed control at 600 ppm: 72 h
carmine spider mite = test: bioactivity test against carmine spider mite, airbrush spray; assay type: in vivo
Procedure, shortened: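 Broadbean seedlings infested with adult mites were sprayed with compound (acetone/methanol stock diluted in 0.1% Tween 80 water) by airbrush at 0.7 kg/cm^2, 0.5 ml. Three replicates were run. Mortality was scored after 72 hrs.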

wheat powdery mildew = test: protectant activity in vivo against wheat powdery mildew
[2] = Myzus persicae, foliar, 48 h, contrastive test, read-out: Insecticidal activity against peach aphid (%)
[3] = 100 ppm, mortality after 72 hrs
[4] = 600 ppm, death rate after 48 hrs
[5] = 600 ppm, mortality after 72 hrs
[6] = 10 ppm, death rate after 48 hrs
[7] = 100 ppm, death rate after 48 hrs

| SMILES | control (test results against green peach aphid) ([1]; 5 ppm, death rate after 48 hrs) | pest or weed control at 2.5 µg/mL [1, 2] | pest or weed control at 5 µg/mL [1, 2] | pest or weed control at 10 µg/mL [1, 2] | pest or weed control at 100 µg/mL [1, 2] | pest or weed control at 600 µg/mL [1, 2] | pest or weed control at 600 ppm (armyworm; 600 ppm) | Insecticidal activity against carmine spider mite (% ) (carmine spider mite; 2.5 mg/L) | Insecticidal activity against carmine spider mite (% ) (carmine spider mite; 5 mg/L) | Insecticidal activity against carmine spider mite (% ) (carmine spider mite; 10 mg/L, contrastive test) | Insecticidal activity against carmine spider mite (% ) (carmine spider mite; 100 mg/L, contrastive test) | Insecticidal activity against carmine spider mite (% ) (carmine spider mite; 600 mg/L, contrastive test) | protectant activity against corn rust in vivo (corn rust; 100 ppm) | protectant activity against corn rust in vivo (corn rust; 400 ppm) | control (test results against green peach aphid) [1, 4] | control (test results against diamond back moth) (Diamond back moth; [5]) | control (test results against armyworm) (armyworm; 600 ppm) | control against carmine spider mite (carmine spider mite; [5]) | protectant activity against wheat powdery mildew in vivo (wheat powdery mildew; 400 ppm) | control (test results against green peach aphid) [1, 6] | also measured |
| --- | --- | --- | --- | --- | --- | --- | --- | --- | --- | --- | --- | --- | --- | --- | --- | --- | --- | --- | --- | --- | --- |
| CCc1ncnc(NCCc2ccc(Oc3ccc(C(F)(F)F)cn3)cc2)c1Cl.Cl [Compound I-6739] | 100% | 100% | 100% | 100% | 100% | 100% | 100% | 76% | 93% | 100% | 100% | 100% |  |  |  |  |  |  |  |  | pest or weed control at 100 ppm (corn rust; Zea mays, 168 h, read-out: protectant activity against corn rust in vivo, 100 ppm): 100%; pest or weed control at 400 ppm (corn rust; Zea mays, 168 h, read-out: protectant activity against corn rust in vivo, 400 ppm): 100%; control (test results against green peach aphid) ([1]; 2.5 ppm, death rate after 48 hrs): 100%; pest or weed control at 1.25 µg/mL ([1]; Myzus persicae, foliar, 48 h, 1.25 mg/L, contrastive test, read-out: Insecticidal activity against peach aphid (%)): 100%; pest or weed control at 10 ppm ([1]; Myzus persicae, foliar, 48 h, 10 ppm, death rate after 48 hrs): 100%; pest or weed control at 100 ppm ([1]; Myzus persicae, foliar, 48 h, 100 ppm, death rate after 48 hrs): 100%; pest or weed control at 600 ppm ([1]; Myzus persicae, foliar, 48 h, 600 ppm, death rate after 48 hrs): 100%; control (test results against diamond back moth) (Diamond back moth; [3]): 100%; pest or weed control at 600 ppm (Diamond back moth; 72 h, 600 ppm, mortality after 72 hrs, read-out: control (test results against diamond back moth)): 100%; control (test results against armyworm) (armyworm; 100 ppm): 100%; control against carmine spider mite (carmine spider mite; 10 ppm, mortality after 72 hrs): 100%; pest or weed control at 100 ppm (carmine spider mite; Tetranychus cinnabarinus, 72 h, 100 ppm, mortality after 72 hrs): 100%; pest or weed control at 600 ppm (carmine spider mite; Tetranychus cinnabarinus, 72 h, 600 ppm, mortality after 72 hrs): 100%; protectant activity against wheat powdery mildew in vivo (wheat powdery mildew; 25 ppm): 100%; pest or weed control at 6.25 ppm (wheat powdery mildew; Triticum aestivum, 168 h, read-out: protectant activity against wheat powdery mildew in vivo, 6.25 ppm): 80 to 99%; pest or weed control at 100 ppm (wheat powdery mildew; Triticum aestivum, 168 h, read-out: protectant activity against wheat powdery mildew in vivo, 100 ppm): 100%; pest or weed control at 400 ppm (wheat powdery mildew; Triticum aestivum, 168 h, read-out: protectant activity against wheat powdery mildew in vivo, 400 ppm): 100% |
| Cc1ncnc(NCCc2ccc(Oc3cccc(C(F)(F)F)c3)nc2)c1Cl [III-21] |  |  |  |  |  |  |  |  |  |  |  |  | 100% | 100% | 100% | 100% | 100% | 100% | 100% |  |  |
| Cc1ncnc(NCCc2ccc(Oc3ccc(C(F)(F)F)cn3)cc2)c1Cl [Compound I-6734] |  |  |  |  |  |  |  | 51% | 57% | 82% | 100% | 100% | 100% | 100% | 100% | 100% | 100% | 100% | 100% | 100% | control (test results against green peach aphid) [1, 7]: 100%; pest or weed control at 10 µg/mL (Diamond back moth; 72 h, 10 mg/L): 40%; pest or weed control at 100 µg/mL (Diamond back moth; 72 h, 100 mg/L): 52%; pest or weed control at 600 µg/mL (Diamond back moth; 72 h, 600 mg/L): 100%; control against carmine spider mite (carmine spider mite; [3]): 100% |
| Cc1ncnc(NCCc2ccc(Oc3ccc(C(F)(F)F)cn3)cc2)c1Cl [Compound I-6731] | 100% | 93% | 100% | 100% | 100% | 100% | 100% |  |  |  |  |  | 100% | 100% | 100% | 100% |  | 100% | 100% | 100% | Insecticidal activity against peach aphid (%) ([1]; 1.25 mg/L, contrastive test): 60%; control (test results against green peach aphid) [1, 7]: 100%; control against carmine spider mite (carmine spider mite; [3]): 100% |

Reference: patent US9770026B2, “Substituted pyrimidine compound and uses thereof” (Shenyang Sinochem Agrochemicals R&D Co., Ltd., priority 2012, dated 2017)
